Data reported in ChEMBL document CHEMBL1201862, “PubChem BioAssay data set” (2004).
Activity calls are given as the source filed them.

Experiments:
[1] = target: DNA damage-inducible transcript 3 protein (Mus musculus, UniProt P35639); assay type: functional, Cricetulus griseus
[2] = target: T1, Microphthalmia-associated transcription factor (Homo sapiens, UniProt O75030); test: TRPM1 promoter luciferase signal decrease, dose response, MITF inhibitor project, cell-based, SK-MEL-5, cherry-picked, set 3 (AID 493073); assay type: functional
T1 sequence (O75030 whole entry): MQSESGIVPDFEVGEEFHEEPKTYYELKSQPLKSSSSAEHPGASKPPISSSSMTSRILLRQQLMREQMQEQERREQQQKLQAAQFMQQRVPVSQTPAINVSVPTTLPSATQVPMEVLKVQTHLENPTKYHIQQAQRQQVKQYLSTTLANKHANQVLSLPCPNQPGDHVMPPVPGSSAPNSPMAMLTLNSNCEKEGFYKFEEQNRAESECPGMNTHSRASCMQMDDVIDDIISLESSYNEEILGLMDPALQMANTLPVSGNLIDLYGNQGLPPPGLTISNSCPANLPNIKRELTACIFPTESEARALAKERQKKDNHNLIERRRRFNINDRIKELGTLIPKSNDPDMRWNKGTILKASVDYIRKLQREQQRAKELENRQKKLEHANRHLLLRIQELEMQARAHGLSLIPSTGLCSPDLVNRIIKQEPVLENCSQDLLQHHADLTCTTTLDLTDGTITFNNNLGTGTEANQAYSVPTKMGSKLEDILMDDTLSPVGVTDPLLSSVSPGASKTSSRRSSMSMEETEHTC

Melanocortin receptor 4 = Melanocortin receptor 4 (Homo sapiens, UniProt P32245); assay type: functional, cell-based;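 also: Cell-based assay with luminescence read-out, confirmatory dose-response testing for agonist activity of biased ligands at MC4R; human U2OS cells with tagged receptor and beta-arrestin; potency of agonists that increase receptor coupling to beta-arrestin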
Interleukin-8 [3] = target: T2, Interleukin-8 (Homo sapiens, UniProt P10145); test: SAR analysis of GM-Tri-DAP induced IL-8 secretion in MCF-7/NOD1 cells - Set 2. [Related pubchem assays (depositor defined):AID1575, AID1578, AID2333]; assay type: functional, cell-based
T2 sequence (P10145 whole entry): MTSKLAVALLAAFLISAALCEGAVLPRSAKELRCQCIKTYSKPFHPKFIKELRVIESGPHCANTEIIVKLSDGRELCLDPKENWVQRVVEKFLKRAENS

HEK293 [4] = test: NOD1 signaling inhibitors, primary screen, cell-based, luminescence, uHTS (AID 1578); assay type: functional; conditions: Homo sapiens
HEK293 [5] = test: cells; conditions: Homo sapiens
Interleukin-8 [6] = target: T2, Interleukin-8; test: SAR analysis of Tumor necrosis factor alpha (TNF-alpha) induced IL-8 secretion in MCF-7/NOD1 cells - Set 2. [Related pubchem assays (depositor defined):AID1575, AID2250, AID2260]; assay type: functional, cell-based
[7] = target: T3, Nucleotide-binding oligomerization domain-containing protein 2 (Homo sapiens, UniProt Q9HC29); test: NOD2 signaling inhibitors, cell-based, luminescence, uHTS, HEK293 (AID 1566); assay type: functional
[8] = target: T3, Nucleotide-binding oligomerization domain-containing protein 2; test: PubChem AID 2334; assay type: functional
HEK293 [9] = test: cells; assay type: functional, cell-based; conditions: Homo sapiens
Tumor necrosis factor = Tumor necrosis factor (Homo sapiens, UniProt P01375); test: TNFa-triggered NF-kB activation inhibitors, SAR follow-up, cell-based, revised (AID 2337); assay type: functional
HEK293 [10] = test: SAR analysis of compounds that are cytotoxic to HEK293 - Set 2. [Related pubchem assays (depositor defined):AID1575, AID1578, AID1849, AID2001, AID2333, AID2334, AID2335, AID2337, AID2800]; assay type: functional, cell-based; conditions: Homo sapiens
HEK293 [11] = test: cells; assay type: functional, cell-based; conditions: Homo sapiens; remark: listed apart in the source
[12] = target: T4, Nucleotide-binding oligomerization domain-containing protein 1 (Homo sapiens, UniProt Q9Y239); test: NOD1 signaling inhibitors, SAR follow-up, revised (AID 2333); assay type: functional
T4 sequence (Q9Y239 whole entry): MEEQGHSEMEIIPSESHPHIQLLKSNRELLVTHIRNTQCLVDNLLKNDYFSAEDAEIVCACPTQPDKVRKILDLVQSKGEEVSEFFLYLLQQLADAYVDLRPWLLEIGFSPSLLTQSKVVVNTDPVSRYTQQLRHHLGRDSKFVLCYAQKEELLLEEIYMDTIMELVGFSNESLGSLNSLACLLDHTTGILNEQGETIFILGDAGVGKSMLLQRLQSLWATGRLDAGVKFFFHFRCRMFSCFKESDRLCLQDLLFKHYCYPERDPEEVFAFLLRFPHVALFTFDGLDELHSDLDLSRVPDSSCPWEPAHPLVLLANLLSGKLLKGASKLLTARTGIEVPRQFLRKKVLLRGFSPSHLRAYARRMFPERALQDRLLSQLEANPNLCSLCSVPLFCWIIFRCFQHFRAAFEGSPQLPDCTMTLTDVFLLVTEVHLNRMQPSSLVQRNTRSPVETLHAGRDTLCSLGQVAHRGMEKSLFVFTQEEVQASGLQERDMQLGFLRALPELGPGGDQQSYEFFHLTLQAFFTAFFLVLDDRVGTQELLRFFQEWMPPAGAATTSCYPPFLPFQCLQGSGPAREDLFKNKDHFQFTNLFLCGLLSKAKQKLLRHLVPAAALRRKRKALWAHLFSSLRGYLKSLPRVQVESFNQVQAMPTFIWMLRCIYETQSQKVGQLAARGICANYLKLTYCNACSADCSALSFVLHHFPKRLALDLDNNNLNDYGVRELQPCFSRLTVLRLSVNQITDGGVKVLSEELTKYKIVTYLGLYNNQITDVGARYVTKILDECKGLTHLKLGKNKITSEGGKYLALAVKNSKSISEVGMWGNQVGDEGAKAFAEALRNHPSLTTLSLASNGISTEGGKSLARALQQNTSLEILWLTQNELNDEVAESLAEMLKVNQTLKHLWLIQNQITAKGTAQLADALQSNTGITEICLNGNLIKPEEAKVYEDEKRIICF

HEK293 [13] = test: cells; assay type: functional, cell-based; conditions: Homo sapiens; remark: listed apart in the source
[14] = target: T4, Nucleotide-binding oligomerization domain-containing protein 1; test: SAR analysis of compounds that inhibit NOD1 - Set 2. [Related pubchem assays (depositor defined):AID1566, AID1575, AID1578, AID1849, AID1852, AID2333, AID2335, AID2798]; assay type: functional
[15] = target: T3, Nucleotide-binding oligomerization domain-containing protein 2; test: NOD2 inhibitors, SAR follow-up, set 2 (AID 2475); assay type: functional
HEK293 [16] = test: NOD2 signaling inhibitors in MDP-stimulated cells, cell-based, uHTS, luminescence (AID 2001); assay type: functional; conditions: Homo sapiens
[17] = cytotoxicity toward NIH3T3 fibroblasts, dose response, counter-screen, cell-based, ATP luminescence, mouse fibroblasts (AID 2010); assay type: functional;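 also: cells exposed to compound for about 90 hours before reading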
[18] = inhibitors of intracellular T. cruzi replication, confirmation, NIH3T3 host cells, beta-gal luminescence (AID 2044); assay type: functional, cell-based;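 also: intracellular parasites grown in NIH/3T3 mouse fibroblasts as host cells; luminescent beta-galactosidase reporter signal from transgenic T. cruzi replicating inside host cells; inhibitors lower the luminescence signal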
J774.A1 = test: Confirmation of image-based Screening Assay for Inhibitors of Phagocytosis. [Related pubchem assays (depositor defined):AID1029, AID1643]; assay type: functional, cell-based; conditions: Mus musculus
fMet-Leu-Phe receptor = fMet-Leu-Phe receptor (Homo sapiens, UniProt P21462); test: FPR ligands, dose response (AID 519); assay type: functional
Streptococcus = test: Group A Streptococcus viability loss, dose response, counter-screen for streptokinase expression inhibitor project, luminescence, BacTiterGlo (AID 1915); assay type: functional, organism-based;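 also: potency for reduction of bacterial viability or growth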
Beta-galactosidase = Beta-galactosidase (Escherichia coli, UniProt Q8VNN2); test: beta-galactosidase enzyme inhibitors and activators, dose response, artefact control for CCR6 antagonist project, biochemical, E. coli enzyme, set 3 (AID 504712); assay type: functional
Fatty acid synthase [19] = target: T5, Fatty acid synthase (Homo sapiens, UniProt P49327); test: FAS thioesterase domain inhibitors, dose response, biochemical, kinetic fluorescence intensity (AID 624326); assay type: functional;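 also: rate of fluorescence rise from hydrolysis of a fluorogenic O-methyl fluorescein ester substrate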
[20] = target: T6, Probable nicotinate-nucleotide adenylyltransferase (Staphylococcus aureus (strain N315), UniProt P65502); assay type: functional, Staphylococcus aureus subsp. aureus N315;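 as to IC50 Mean: confirmatory dose-response retesting of NadD inhibitor hits first found in an ultra-high-throughput screen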
Fatty acid synthase [21] = target: T5, Fatty acid synthase; test: FAS thioesterase domain inhibitors, dose response, biochemical, endpoint fluorescence intensity, uHTS hits (AID 624327); assay type: functional;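 also: fluorescence from hydrolysis of an O-methyl fluorescein acyl ester substrate by the enzyme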
Genome polyprotein = Genome polyprotein (dengue virus type 2, UniProt P29990); test: Dengue-2 NS5 methyltransferase inhibitors, primary screen, biochemical, confirmation dose response (AID 588689); assay type: functional
[22] = system: Streptococcus sp. 'group A'; test: growth inhibition of control SK(-) GAS strain, dose response, counter-screen for streptokinase expression inhibitor project, luminescence, kanamycin, BacTiterGlo, confirmation (AID 1900); assay type: functional, organism-based
[23] = target: T6, Probable nicotinate-nucleotide adenylyltransferase; assay type: functional, Staphylococcus aureus subsp. aureus N315; conditions: read-out: IC50_Mean
Vero = Vero cell cytotoxicity, cytotoxicity control for flavivirus capping enzyme inhibitors (AID 588742); assay type: functional; conditions: Chlorocebus sabaeus
[24] = target: T7, Protein phosphatase methylesterase 1 (Homo sapiens, UniProt Q9Y570); test: Late stage results from the probe development effort to identify inhibitors of the protein methylesterase PME-1: Gel-based Activity-Based Protein Profiling (ABPP) IC50: Purified enzyme.; assay type: functional
[25] = target: T7, Protein phosphatase methylesterase 1; test: PME-1 inhibitor potency by in-gel ABPP, dose response, selectivity assay for PME-1 inhibitor project, cell lysate, mouse brain cytosol, FP-rhodamine, panel member PME-1 Assay Panel member description: Inhibition of endogenously expressed PME-1 (AID 2366)
MDA-MB-435 = test: cells; assay type: functional, cell-based; conditions: Homo sapiens
cells [26] = assay type: functional, cell-based; conditions: PPC-1
[27] = target: Voltage-gated N-type calcium channel alpha-1B subunit/Amyloid beta A4 precursor protein-binding family A member 1 (Homo sapiens, UniProt Q00975+Q02410); test: disruptors of Mint-PDZ/N-type channel peptide interaction – biochemical, HTRF, SAR follow-up (AID 2489); assay type: functional
Hexokinase = Hexokinase (Trypanosoma brucei, UniProt Q38C41); test: Confirmation assay for inhibitors of Trypanosoma brucei hexokinase 1-Analogue-first series. [Related pubchem assays (depositor defined):AID1430, AID1632, AID2516, AID2560, AID2579, AID2600, AID449725, AID492951]; assay type: functional
[28] = THP-1 cell cytotoxicity, dose response, cytotoxicity control for non-replicating M. tuberculosis project (AID 489025); assay type: functional
cells [29] = assay type: functional
[30] = Vero E6 cell cytotoxicity, dose response, cytotoxicity control for non-replicating M. tuberculosis project, secondary assay (AID 492998); assay type: functional, VeroE6; conditions: Vero C1008
[31] = target: NACHT, LRR and PYD domains-containing protein 3 (Homo sapiens, UniProt Q96P20); test: NALP3 inhibitors in yeast, dose response, luminescent (AID 488799); assay type: functional
INS1 = test: beta cell apoptosis inhibitors, cytokine rescue, dose response, luminescence, retest (AID 449756); assay type: functional, cell-based; conditions: Rattus norvegicus;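 also: cell death triggered by IL-1 beta plus TNF-alpha plus IFN-gamma mixture; protective hits raise ATP signal compared with cytokine alone wells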

T3 sequence (Q9HC29 whole entry, the tested form may be a part): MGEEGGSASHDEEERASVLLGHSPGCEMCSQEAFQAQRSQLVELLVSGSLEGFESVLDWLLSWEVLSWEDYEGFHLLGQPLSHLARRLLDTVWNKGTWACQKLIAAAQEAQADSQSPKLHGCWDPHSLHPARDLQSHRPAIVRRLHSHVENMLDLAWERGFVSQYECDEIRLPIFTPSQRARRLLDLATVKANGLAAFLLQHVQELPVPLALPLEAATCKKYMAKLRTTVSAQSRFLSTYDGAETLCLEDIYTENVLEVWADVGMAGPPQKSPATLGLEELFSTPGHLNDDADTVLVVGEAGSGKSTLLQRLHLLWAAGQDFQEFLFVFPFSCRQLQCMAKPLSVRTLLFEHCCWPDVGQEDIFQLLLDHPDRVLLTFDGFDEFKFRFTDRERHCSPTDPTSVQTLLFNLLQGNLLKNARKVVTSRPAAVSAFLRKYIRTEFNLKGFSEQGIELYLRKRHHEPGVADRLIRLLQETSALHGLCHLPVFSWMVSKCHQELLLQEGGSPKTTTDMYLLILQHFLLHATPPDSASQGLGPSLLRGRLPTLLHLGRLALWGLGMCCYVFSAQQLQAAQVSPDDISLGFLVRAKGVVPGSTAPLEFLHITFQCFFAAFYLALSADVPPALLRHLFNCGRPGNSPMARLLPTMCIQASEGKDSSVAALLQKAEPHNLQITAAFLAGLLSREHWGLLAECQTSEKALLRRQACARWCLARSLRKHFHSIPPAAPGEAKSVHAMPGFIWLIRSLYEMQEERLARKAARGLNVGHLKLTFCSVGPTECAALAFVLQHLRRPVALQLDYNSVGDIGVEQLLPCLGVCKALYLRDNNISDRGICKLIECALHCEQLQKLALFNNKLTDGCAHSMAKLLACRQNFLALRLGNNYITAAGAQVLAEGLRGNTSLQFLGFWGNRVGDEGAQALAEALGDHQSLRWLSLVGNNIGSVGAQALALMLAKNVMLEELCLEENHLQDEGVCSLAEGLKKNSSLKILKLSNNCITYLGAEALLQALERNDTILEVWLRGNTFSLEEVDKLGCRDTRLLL
T7 sequence (Q9Y570 whole entry): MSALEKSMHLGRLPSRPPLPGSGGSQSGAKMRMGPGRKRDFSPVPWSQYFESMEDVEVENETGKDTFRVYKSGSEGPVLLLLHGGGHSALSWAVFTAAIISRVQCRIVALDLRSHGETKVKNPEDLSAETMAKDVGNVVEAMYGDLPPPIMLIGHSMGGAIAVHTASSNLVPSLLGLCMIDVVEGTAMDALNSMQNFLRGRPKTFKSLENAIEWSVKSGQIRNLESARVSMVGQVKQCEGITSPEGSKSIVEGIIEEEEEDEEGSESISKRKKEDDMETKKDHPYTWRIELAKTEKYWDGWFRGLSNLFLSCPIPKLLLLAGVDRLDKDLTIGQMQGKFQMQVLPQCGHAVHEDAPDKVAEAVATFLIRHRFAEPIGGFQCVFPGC
T6 sequence (P65502 whole entry, the tested form may be a part): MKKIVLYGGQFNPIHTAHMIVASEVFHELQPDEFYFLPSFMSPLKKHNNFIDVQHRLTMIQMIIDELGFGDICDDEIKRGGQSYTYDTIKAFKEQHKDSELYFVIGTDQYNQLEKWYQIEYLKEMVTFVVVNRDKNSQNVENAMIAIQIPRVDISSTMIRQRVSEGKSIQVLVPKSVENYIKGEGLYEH
Sequence of Tumor necrosis factor (P01375 whole entry): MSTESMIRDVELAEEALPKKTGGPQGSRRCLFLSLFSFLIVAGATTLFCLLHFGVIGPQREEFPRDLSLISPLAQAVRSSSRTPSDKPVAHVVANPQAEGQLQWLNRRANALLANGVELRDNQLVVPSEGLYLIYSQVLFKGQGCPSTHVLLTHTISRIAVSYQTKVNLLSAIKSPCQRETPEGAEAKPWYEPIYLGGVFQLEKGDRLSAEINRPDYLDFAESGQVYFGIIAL
T5 sequence (P49327 whole entry, the tested form may be a part): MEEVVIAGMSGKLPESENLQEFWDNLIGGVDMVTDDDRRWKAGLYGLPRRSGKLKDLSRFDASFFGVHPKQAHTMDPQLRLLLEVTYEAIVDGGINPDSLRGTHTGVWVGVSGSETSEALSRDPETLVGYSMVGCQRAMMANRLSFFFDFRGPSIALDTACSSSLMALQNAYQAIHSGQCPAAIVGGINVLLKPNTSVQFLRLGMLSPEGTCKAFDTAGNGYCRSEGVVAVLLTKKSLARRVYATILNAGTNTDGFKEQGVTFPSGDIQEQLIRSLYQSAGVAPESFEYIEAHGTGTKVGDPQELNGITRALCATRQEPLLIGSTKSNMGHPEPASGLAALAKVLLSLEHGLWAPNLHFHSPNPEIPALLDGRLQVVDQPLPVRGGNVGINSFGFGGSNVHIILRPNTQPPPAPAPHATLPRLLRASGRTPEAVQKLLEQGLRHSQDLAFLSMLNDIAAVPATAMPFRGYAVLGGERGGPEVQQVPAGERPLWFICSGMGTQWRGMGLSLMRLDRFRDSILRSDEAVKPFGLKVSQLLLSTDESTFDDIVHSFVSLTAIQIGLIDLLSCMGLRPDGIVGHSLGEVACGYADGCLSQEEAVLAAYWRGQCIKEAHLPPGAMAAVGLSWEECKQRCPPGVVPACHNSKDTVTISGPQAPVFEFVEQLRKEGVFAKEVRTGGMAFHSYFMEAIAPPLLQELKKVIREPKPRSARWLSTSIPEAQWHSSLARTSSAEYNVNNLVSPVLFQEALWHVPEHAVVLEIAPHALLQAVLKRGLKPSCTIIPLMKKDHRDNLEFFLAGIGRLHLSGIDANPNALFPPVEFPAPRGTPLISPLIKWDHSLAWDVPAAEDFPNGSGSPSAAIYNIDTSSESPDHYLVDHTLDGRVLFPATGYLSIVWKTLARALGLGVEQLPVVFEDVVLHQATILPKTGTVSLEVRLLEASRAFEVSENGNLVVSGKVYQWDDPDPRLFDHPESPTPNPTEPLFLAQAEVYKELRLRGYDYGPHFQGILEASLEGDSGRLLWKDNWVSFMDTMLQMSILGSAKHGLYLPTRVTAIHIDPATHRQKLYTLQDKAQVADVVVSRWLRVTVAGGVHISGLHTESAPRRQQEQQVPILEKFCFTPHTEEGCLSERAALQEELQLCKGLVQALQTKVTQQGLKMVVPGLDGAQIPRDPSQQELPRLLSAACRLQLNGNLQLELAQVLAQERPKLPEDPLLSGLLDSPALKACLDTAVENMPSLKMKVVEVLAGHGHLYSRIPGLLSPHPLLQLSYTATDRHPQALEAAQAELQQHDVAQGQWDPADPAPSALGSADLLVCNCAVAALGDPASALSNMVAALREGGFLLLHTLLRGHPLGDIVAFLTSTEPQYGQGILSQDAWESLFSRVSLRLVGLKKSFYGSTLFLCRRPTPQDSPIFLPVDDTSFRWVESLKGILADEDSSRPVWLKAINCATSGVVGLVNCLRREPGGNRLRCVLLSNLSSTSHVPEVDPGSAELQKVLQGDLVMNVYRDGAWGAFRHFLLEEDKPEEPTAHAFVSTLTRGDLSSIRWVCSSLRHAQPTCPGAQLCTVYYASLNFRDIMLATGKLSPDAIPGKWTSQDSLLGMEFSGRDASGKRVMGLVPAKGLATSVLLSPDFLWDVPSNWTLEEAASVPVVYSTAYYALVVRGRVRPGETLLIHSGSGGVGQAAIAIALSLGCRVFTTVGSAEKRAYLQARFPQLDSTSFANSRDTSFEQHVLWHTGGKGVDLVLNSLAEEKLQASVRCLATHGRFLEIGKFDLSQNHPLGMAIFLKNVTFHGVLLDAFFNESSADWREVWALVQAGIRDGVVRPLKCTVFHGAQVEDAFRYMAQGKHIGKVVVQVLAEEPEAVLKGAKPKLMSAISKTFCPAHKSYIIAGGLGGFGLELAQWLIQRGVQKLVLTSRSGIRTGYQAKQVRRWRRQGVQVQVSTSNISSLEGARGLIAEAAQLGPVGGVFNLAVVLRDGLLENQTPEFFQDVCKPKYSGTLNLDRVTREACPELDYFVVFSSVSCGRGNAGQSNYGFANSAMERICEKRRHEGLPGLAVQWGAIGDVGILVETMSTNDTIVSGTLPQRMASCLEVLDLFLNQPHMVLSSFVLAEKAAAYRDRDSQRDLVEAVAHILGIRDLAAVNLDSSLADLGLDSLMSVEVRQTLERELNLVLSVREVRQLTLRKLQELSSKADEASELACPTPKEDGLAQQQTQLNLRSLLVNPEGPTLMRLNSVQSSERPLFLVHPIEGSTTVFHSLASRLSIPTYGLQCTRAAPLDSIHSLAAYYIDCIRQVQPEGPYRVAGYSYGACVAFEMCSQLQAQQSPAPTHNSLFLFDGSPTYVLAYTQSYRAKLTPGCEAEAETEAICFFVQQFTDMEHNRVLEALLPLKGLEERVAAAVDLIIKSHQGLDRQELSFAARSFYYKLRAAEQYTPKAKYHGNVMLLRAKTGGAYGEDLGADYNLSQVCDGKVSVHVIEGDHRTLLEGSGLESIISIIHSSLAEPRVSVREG
Sequence of DNA damage-inducible transcript 3 protein (P35639 whole entry): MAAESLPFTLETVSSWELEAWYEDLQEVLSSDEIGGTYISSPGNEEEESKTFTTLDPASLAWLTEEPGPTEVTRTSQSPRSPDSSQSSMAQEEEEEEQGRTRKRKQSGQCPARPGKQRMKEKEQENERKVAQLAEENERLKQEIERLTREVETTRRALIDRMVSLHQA
Sequence of Melanocortin receptor 4 (P32245 whole entry): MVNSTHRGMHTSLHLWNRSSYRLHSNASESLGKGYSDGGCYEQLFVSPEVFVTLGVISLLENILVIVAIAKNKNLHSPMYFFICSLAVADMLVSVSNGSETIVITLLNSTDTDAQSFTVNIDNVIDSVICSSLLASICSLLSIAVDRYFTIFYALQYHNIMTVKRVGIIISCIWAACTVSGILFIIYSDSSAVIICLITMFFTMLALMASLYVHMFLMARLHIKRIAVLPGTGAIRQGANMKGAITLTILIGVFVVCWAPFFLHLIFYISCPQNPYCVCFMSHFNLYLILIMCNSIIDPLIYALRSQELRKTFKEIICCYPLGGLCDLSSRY

COc1cc(NC(=O)COc2ccccc2[N+](=O)[O-])ccc1NC(=O)c1cccs1
Absolute IC50 (CHOP) [1]: 10 µM
AC50 [2]: 10.1 µM (active)
EC50 (Melanocortin receptor 4): > 89.2 µM (inactive)

O=C(Nc1nc2ccccc2n1Cc1ccc(Cl)cc1)c1ccco1
IC50 (Interleukin-8 [3]): > 25 µM (inactive)
EC50 (HEK293 [4]): > 20 µM (inactive)
IC50 (HEK293 [5]): > 20 µM (inactive)
IC50 (Interleukin-8 [6]): > 25 µM (inactive)
EC50 [7]: > 20 µM (inactive)
IC50 [8]: > 20 µM (inactive)
IC50 (HEK293 [9]): > 20 µM (inactive)
IC50 (Tumor necrosis factor): > 20 µM (inactive)
IC50 (HEK293 [10]): > 20 µM (inactive)
IC50 (HEK293 [11]): > 20 µM (inactive)
IC50 [12]: > 20 µM (inactive)
IC50 (HEK293 [13]): > 20 µM (inactive)
IC50 [14]: 3.47 µM (active)
IC50 [15]: 3.63 µM (active)
IC50 (HEK293 [16]): 1.96 µM (active)
EC50 [17]: > 60 µM (not active)
EC50 [18]: 1.72 µM (active)

Cn1cc(C=Nn2cnc3scc(-c4ccc(Cl)cc4)c3c2=O)c2ccccc21
IC50 (J774.A1): < 0.05 µM (inactive)

Cc1nn2c(O)cc(-c3ccc([N+](=O)[O-])cc3)nc2c1-c1ccccc1
Ki (fMet-Leu-Phe receptor): > 66.7 µM (inactive)
EC50 (Streptococcus): 1.44 µM (active)
IC50 (Beta-galactosidase): > 66.6 µM (inactive)
IC50 (Fatty acid synthase [19]): 6.29 µM (active)
IC50 [20]: 8.02 µM (active)
IC50 (Fatty acid synthase [21]): 11.2 µM (active)
IC50 (Genome polyprotein): 36.5 µM (active)
EC50 [22]: 0.662 µM (active)
IC50 [23]: 30.2 µM (active)
CC50 (Vero): 29.6 µM (active)

CS(=O)(=O)C(=Cc1cccn1S(=O)(=O)c1ccccc1)S(C)(=O)=O
IC50 [24]: > 20 µM (not active)
IC50 [25]: > 20 µM (inactive)

CSc1nc(-c2ccccc2)nc(-c2ccccc2OC(C)=O)n1
IC50 (MDA-MB-435): > 10 µM (inactive)
IC50 (cells [26]): > 10 µM (inactive)

CCOC(=O)N1CCN(C(=O)c2ccc3nc(-c4ccco4)c(-c4ccco4)nc3c2)CC1
IC50 [27]: 42.5 µM (active)

O=C1CCN(C(=O)Nc2cc(Cl)ccc2C(=O)O)CC1
IC50 (Hexokinase): > 25 µM (inactive)

O=C(N/N=C\c1ccc(Cl)s1)C1COc2ccccc2O1 (centres undefined)
CC50 [28]: 16.3 µM (active)
IC50 (cells [29]): 5.63 µM (active)
CC50 [30]: 19.4 µM (active)

CC(=O)Oc1c(I)cc(I)cc1C(=O)Nc1ccc(Cl)cc1 [CLIOXANIDE]
EC50 (Streptococcus): 0.76 µM (active)
IC50 [31]: 1.61 µM (active)
AC50 (INS1): 12.5 µM (active)
EC50 [22]: 0.377 µM (active)
